Experiment [1] relates to SU-DHL-6 (NHL) cells. Kind of experiment: cells. The format is cell-based, human. The conditions noted are these: Homo sapiens; SU-DHL-6 (NHL) cells; 72 hrs, Cell Titer-Glo; NK = no killing; read-out: Cell Killing Activity IC50. As to the method: (§1) Cell lines tested included B-lymphoma, multiple myeloma, and leukemia cells.
(§2) Cytotoxicity effects of the free drug linkers and conjugates were measured with a cell proliferation assay. A total of 12500 cells in a volume of 25 μl were seeded in a 384-well flat bottom white polystyrene plate on the day of assay. Free drug-linkers and conjugates were formulated at 2× starting concentration (1000 nM for free drug linkers and 100 nM for ADCs) in RPMI medium and filtered through MultiScreen HTS 96-Well Filter Plates (Millipore). Filter sterilized samples were serial diluted (1:3) under sterile conditions and added into treatment wells. Plates were cultured at 37° C. in a CO2 incubator for 72 hrs. For cell viability measurement, 30 μl of Cell Titer-Glo® reagent (Promega Corp.) was added into each well, and plates processed as per product instructions. Relative luminescence was measured on an ENVISION® plate reader (Perkin-Elmer; Waltham, Mass.). Relative luminescence readings were converted to % viability using untreated cells as controls. Data was fitted with non-linear regression analysis, using log(inhibitor) vs. response, variable slope, 4 parameter fit equation using GraphPad Prism. Data was expressed as % relative cell viability vs. dose of free drug-linker or conjugate in nM.
as §1
Background: ATP-based viability assays read luminescence as a measure of living cells.

Experiment [2] has as its system RPMI-8226 (MM) cells. In words: cells. The class given is cell-based. To be noted: Homo sapiens; RPMI-8226 (MM) cells; 72 hrs, Cell Titer-Glo; NK = no killing; read-out: Cell Killing Activity IC50. How it is done: as §1, §2
Each of Conjugates A-F was evaluated for the ability to bind and kill cells expressing CD74. Cell lines tested included B-lymphoma, multiple myeloma, and leukemia cells. Controls included unconjugated anti-CD74 antibody.

For experiment [3], the system named is OPM-2 (MM) cells. Kind of experiment: Cell killing assay (cell proliferation, Cell Titer-Glo), OPM-2 (MM). The class given is cell-based. The conditions noted are these: Homo sapiens, 72 hrs, NK = no killing. As to the method:
as §1, §2
(§3) Each of Conjugates A-F was evaluated for the ability to bind and kill cells expressing CD74. […]

Experiment [4] relates to ARD (MM) cells. In words: cells. The class given is cell-based. To be noted: ARD (MM) cells, 72 hrs, Cell Titer-Glo, NK = no killing. As to the method: as §1, §2, §1
Experiment [5] has as its system BDCM (AML) cells. Kind of experiment: cells. The format is cell-based. The conditions noted are these: BDCM (AML) cells; 72 hrs, Cell Titer-Glo; NK = no killing; read-out: Cell Killing Activity IC50. How it is done: as §1, §2, §1
Experiment [6] deals with JVM-13 (CLL) cells. In words: cells. The class given is cell-based. The conditions noted are these: JVM13; JVM-13 (CLL) cells; 72 hrs, Cell Titer-Glo; NK = no killing; read-out: Cell Killing Activity IC50. As to the method: as §1, §2, §1
In experiment [7] the test system is RPMI-6666 (HL) cells. Kind of experiment: cells. The conditions noted are these: Homo sapiens; RPMI-6666 (HL) cells; 72 hrs, Cell Titer-Glo; NK = no killing; read-out: Cell Killing Activity IC50. The format is cell-based. How it is done: as §1, §2, §1
Experiment [8] has as its system SUP-B15 (ALL) cells. Kind of experiment: cells. The format is cell-based. To be noted: Homo sapiens; SUP-B15 (ALL) cells; 72 hrs, Cell Titer-Glo; NK = no killing; read-out: Cell Killing Activity IC50. As to the method:
as §1, §2, §1

In experiment [9] the test system is K562 (CML) cells. In words: Cell killing assay (cell proliferation, Cell Titer-Glo), K562 (CML). The format is cell-based. To be noted: Homo sapiens, 72 hrs, NK = no killing. How it is done:
as §1, §2, §3

The source of these data is patent US11708413B2 (priority 2016, dated 2023).

By IC50 is commonly meant the midpoint of a concentration-inhibition curve.

As for `COc1cc2cc(c1Cl)N(C)C(=O)C[C@H](OC(=O)[C@H](C)N(C)C(=O)CCCC(=O)N(C)CCOCCOCCOCCOCCC(=O)NCCC(=O)N1Cc3ccccc3C#Cc3ccccc31)[C@]1(C)O[C@H]1[C@H](C)[C@@H]1C[C@@](O)(NC(=O)O1)[C@H](OC)/C=C/C=C(/C)C2` [Free Linker-Drug, DBCO-PEG4-maytansine, reference compound], the IC50 is 15 nM in [1]; 18 nM in experiment [2]; 24 nM in [3]; about 34 nM in [4] (read-out: Cell Killing Activity IC50); 13 nM in [5]; 25 nM in [6]. Moreover, the half-inhibitory concentration (IC50) in experiment [7] was about 13 nM; in [8] it was 11 nM; in experiment [9], 60 nM. Further, the “Cell Killing Activity Span” value in experiment [4] is given as 40%.
